Article PMC11411213 (Journal of Molecular Cell Biology, 2024)
Like-named read-outs stand apart in the source and are kept apart here.

Assays:
Type in all cases: cell-based
[1] = system: SARS-CoV-2 D614G variant
[2] = system: SARS-CoV-2 Alpha variant; assay: microbe, parasite or virus in culture
[3] = system: SARS-CoV-2 Delta variant; assay: microbe, parasite or virus in culture
[4] = system: SARS-CoV-2 Wuhan variant; assay: microbe, parasite or virus in culture
[5] = system: SARS-CoV-2 Wuhan variant
[6] = system: SARS-CoV-2 Omicron variant
[7] = Severe acute respiratory syndrome coronavirus 2, Calu-3

Row | Molecule | IC50 [1] | IC50 ([2]; read-out: IC50) | IC50 ([3]; read-out: IC50) | IC50 ([4]; read-out: IC50) | SI (selectivity index) [2] | IC50 [2, 7] | SI (selectivity index) [3] | IC50 [3, 7] | IC50 [4, 7] | SI (selectivity index) [4] | antiviral activity after a single replication cycle (viral titre, in words) [5] | antiviral activity after a single replication cycle (viral titre, in words) [6]
1 | MKI-1 | 46.4 ± 0.82 nM | 31.7 ± 4.18 nM | 48.4 ± 2.07 nM | 46.5 ± 1.8 nM | – | – | – | – | – | – | – | –
2 | COc1cc(Nc2ncc(F)c(Nc3ccc4c(n3)NC(=O)C(C)(C)O4)n2)cc(OC)c1OC [Tamatinib] | 115 ± 6.77 nM | – | – | – | 69.20 | 82.95 ± 0.68 nM | 57.84 | 99.2 ± 1.4 nM | 103 ± 2.7 nM | – | – | –
3 | COc1cc2c(Nc3ccc(Br)cc3F)ncnc2cc1OCC1CCN(C)CC1 [Vandetanib] | 33.4 ± 2.72 nM | – | – | – | 123.55 | 30.4 ± 1.54 nM | 72.91 | 51.5 ± 5.55 nM | 38.9 ± 2.4 nM | 96.46 | – | –
4 | O=C(O)c1cc(/N=N/c2ccc(S(=O)(=O)Nc3ccccn3)cc2)ccc1O [Sulfasalazine] | 20000 ± 2070 nM | – | – | – | > 23.87 | 20900 ± 4230 nM | > 20.82 | 24000 ± 3200 nM | 24400 ± 5370 nM | > 20.51 | – | –
5 | N-acetyl cysteine [NAC] | – | – | – | 549000 nM | – | – | – | – | – | – | strong antiviral activity | effective against the Omicron variant
6 | N[C@@H](CCC(=O)N[C@@H](CS)C(=O)NCC(=O)O)C(=O)O [GSH, glutathione] | – | – | – | – | – | – | – | – | – | – | strong antiviral activity | effective against the Omicron variant
7 | imidazole ketone erastin [IKE] | 88.5 ± 105 nM | 79.9 ± 4.11 nM | 113 ± 3.71 nM | 99 ± 8.12 nM | – | – | – | – | – | – | strong antiviral activity | effective against the Omicron variant
